The target of experiment [1] is T1, purified Hemoglobin S (HbS) (Homo sapiens, UniProt P68871+P69905, E7V).
T1 construct: HbS was purified by a modified procedure; from tissue; host or cells: blood of homozygous sickle cell patients (CHORI)
Put plainly: Modulation of hemoglobin oxygen affinity: oxygen equilibrium curves (OEC) in purified HbS, HEMOX analyzer. The experiment is classed as biochemical. Conditions: compounds tested at 30 μM; 25 μM purified HbS, 45 min at 37° C., pH 7.4. The method, then: Oxygen equilibrium curves (OEC) in purified Hemoglobin S (HbS) were measured by the change in p50, the partial pressure of oxygen at which the heme binding sites in the HbS sample are 50% saturated with oxygen. HbS was purified by a modified procedure (Antonini and Brunori, 1971; Hemoglobin and Myoglobin in their Reactions with Ligands; North Holland Publishing Company; Amsterdam, London) from blood obtained from homozygous sickle cell patients though the Hemoglobinopathy Center at Children's Hospital Oakland Research Institute (CHORI) with Institutional Review Board approval. Oxygen equilibrium curves were carried out with a HEMOX analyzer, (TCS Scientific, New Hope, Pa.). Five hundred μL of 250 μM purified HbS were diluted into 4.5 mL of HEMOX buffer (30 mM TES, 130 mM NaCl, 5 mM KCl, pH=7.4) resulting in a final hemoglobin concentration of 25 μM. The compounds were added at the final desired concentrations. The mixture was incubated for 45 min at 37° C. and then transferred to the Hemox sample chamber. The samples were saturated with oxygen by flushing with compressed air for 10 minutes. The samples were then flushed with pure nitrogen and the absorbance of deoxy-Hb was recorded as a function of the solution pO2. The oxygen equilibrium data was then fit to the Hill Model to obtain values for p50. The deoxygenation curves for both HbS alone (control) and HbS in the presence of compound were collected with the TCS software. The p50 for purified Hbs was typically 13.8±1.6. Delta p50 values were obtained from the p50 value for control minus the p50 value for HbS treated with compound divided by the p50 value for the control.
The compounds of Table 1 that were where tested in the assay above were all found to have positive delta p50 values. Delta p50% is calculated from [[p50(HbS)-p50(HbS treated with compound)]/p50(HbS)]×100. Table 2 below lists the delta p50% values where + indicates a delta p50% of between 0 and 29 and ++ indicates a delta p50% of 30 or greater. Unless noted otherwise, the compounds in Table 2 were tested at 30 μM.

Another experiment addresses T2, purified HBS (Homo sapiens, UniProt P68871+P69905, E7V).
T2 construct: HbS is purified by the CRO VIRUSYS, from blood obtained from homozygous sickle cell patients; tissue VIRUSYS (CRO that did the purification); host or cells: blood of homozygous sickle cell patients (CHORI)
As to the kind of experiment: HbS polymerization assay (delay time, absorbance at 700 nm). The experiment is classed as biochemical. Conditions: percent delay (% DT) of polymerization vs HBS alone; 50 μM purified HBS, 1.8 M potassium phosphate pH 7.4. As to the method: Polymerization assays are carried out in vitro using purified HBS exchanged into 1.8 M potassium phosphate buffer at pH 7.4. Using a slightly modified protocol (Antonini and Brunori, 1971), HbS is purified by the CRO VIRUSYS, from blood obtained from homozygous sickle cell patients through the Hemoglobinopathy Center at Children's Hospital Oakland Research Institute (CHORI) with Institutional Review Board approval. Compounds are prepared in 100% DMSO and a desired amount is added to 50 μM of purified HBS at a final DMSO concentration of 0.3%. Final potassium phosphate concentration is adjusted to 1.8 M using a combination of 2.5 M potassium phosphate stock solution and water at pH 7.4. The reaction mixture is incubated for an hour at 37° C. and then transferred into a 24-well plate for deoxygenation in a glove box containing 99.5% nitrogen and 0.5% oxygen. The 24-well plate is not covered and incubated at 4° C. on a plate cooler inside the glove box for one and a half hours. Fifty μL of the reaction mixture is transferred into a 96-well plate and the absorbance at 700 nm is measured every minute for one hour at 37° C. in a plate reader located inside the glove box. A plot of the absorbance against time is fitted using a Boltzman sigmoidal fit and the delay time (from zero to time at half Vmax) is measured. To compare and rank compounds, delay times are expressed as percent delay (% DT), which is defined as the difference in delay times for HBS/compound and HBS alone multiplied by 100 and divided by the delay time for HBS alone.
Compounds listed below have been tested in the polymerization assay. Activity ranges are defined by the number of dagger (†) symbols indicated. † denotes activity ≥40% but ≤80%; †† denotes activity >80% but ≤120%; ††† denotes activity >120% but ≤140%; †††† denotes activity >160%.

The subject of experiment [2] is whole blood from homozygous sickle cell patients. Put plainly: Whole blood assay: oxygen equilibrium curves of whole blood, HEMOX analyzer. The experiment is classed as cell-based, human. Conditions: compounds tested at 1000 μM; hematocrit 20%, 1 hour at 37° C. As to the method:
Oxygen Equilibrium Curves (OEC) of whole blood before and after treatment with different concentrations of substituted benzaldehyde compounds were performed as follows using a HEMOX analyzer (TCS Scientific, New Hope, Pa.). Blood samples from homozygous sickle cell patients were obtained though the Hemoglobinopathy Center at Children's Hospital Oakland Research Institute (CHORI) with Institutional Review Board approval. The hematocrit was adjusted to 20% using autologous plasma and the blood samples were incubated for 1 hour at 37° C. in absence or presence of compounds. 100 μl of these samples were added to 5 mL of Hemox buffer (30 mM TES, 130 mM NaCl, 5 mM KCl, pH=7.4) at 37° C. and then transferred to the Hemox sample chamber. The samples were saturated with oxygen by flushing with compressed air for 10 minutes. The samples were then flushed with pure nitrogen and the respective absorbances of oxy- and deoxy-Hb are recorded as a function of the solution pO2. The oxygen equilibrium data were then fitted to the Hill Model to obtain values for p50. The deoxygenation curves for both whole blood alone (control) and whole blood in the presence of the compound were collected with the TCS software.
Table 5 below lists the delta p50% values where + indicates a delta p50% of between 0 and 29, ++ indicates a delta p50% of between 30 and 50, and +++ indicates a delta p50% of 50 or greater. The compounds in Table 2 were tested at 1000 μM.

For a further experiment, the target named is T3, HbS/A (Homo sapiens, UniProt P68871+P69905, E7V).
T3 construct: A mixture of HbS/A was purified from blood; from tissue; host or cells: blood of homozygous sickle cell patients (CHORI)
Put plainly: Relaxed-to-tense transition assay (R/T assay). It counts as biochemical. The following applies: compounds tested at 9 μM; 3 μM HbS/A, 30 μM DPG, 1 hr at 37° C., deoxygenation with N2. As to the method: A relaxed-to-tense transition assay (“R/T assay”) was used to determine the ability of substituted benzaldehyde compounds to maintain the high-oxygen affinity relaxed (R) state of hemoglobin under deoxygenated conditions. This ability can be expressed as a “delta R” value (i.e., the change in the time-period of the R state after hemoglobin is treated with a compound, as compared to the period without treatment with the compound). Delta R is the % R to remaining after the compounds treatment compared with no treatment (e.g. if R % without treatment is 8% while with treatment with a target compound is 48% R at 30 μM, then % R is 40% for that compound.
A mixture of HbS/A was purified from blood obtained from homozygous sickle cell patients though the Hemoglobinopathy Center at Children's Hospital Oakland Research Institute (CHORI) with Institutional Review Board approval. HbS/A (at a final concentration of 3 μM) was incubated for 1 hr at 37° C. in presence or absence of compounds in […] potassium phosphate buffer, pH=7.4 and 30 μM 2, 3 diphosphoglycerate (DPG) in 96 well plates in a final volume of 160 μl. Compounds were added at different concentrations (3 μM to 100 μM final concentrations). Plates were covered with a Mylar film. After incubation was completed the Mylar cover was removed and the plates were placed in a Spectrostar Nano plate reader previously heated at 37° C. Five minutes later, N2 (flow rate=20 L/min) was flowed through the spectrophotometer. Spectroscopic measurements (300 nm to 700 nm) were taken every 5 min for 2 hours. Data analysis was performed by using linear regression from the data retrieved for all wavelengths.
Table 4 below lists the delta R values where + indicates a delta R of between 0 and 30, ++ indicates a delta R of between 30 and 50, and +++ indicates a delta R of 50 or greater. Unless noted otherwise, the compounds in Table 2 were tested at 9 μM.

Experiment [3] concerns Transgenic mice producing human HbS. Conditions: extreme hypoxia (5% oxygen), cited from earlier work.

SMILES strings stand for the structures.

In the case of `O=Cc1c(O)cccc1OC[C@H]1CC[C@H](C(=O)O)CC1` [Compound 6, trans-4-((2-formyl-3-hydroxyphenoxy)methyl)cyclohexanecarboxylic acid], the “delta p50” value in experiment [1] is “++ (++ indicates a delta p50% of 30 or greater)”. The “% delta Delay” value on purified HBS is listed as “†† (†† denotes activity >80% but ≤120%)”. In addition, the “delta p50%” value in experiment [2] was “+ (+ indicates a delta p50% of between 0 and 29)”.

For the molecule `O=Cc1c(O)cccc1OC[C@H]1CC[C@@H](C(=O)O)CC1` [Compound 2, cis-4-((2-formyl-3-hydroxyphenoxy)methyl)cyclohexanecarboxylic acid], the “delta p50” value in experiment [1] is on record as “++ (++ indicates a delta p50% of 30 or greater)”. Moreover, the “% delta Delay” value on purified HBS is reported as “†††† (†††† denotes activity >160%)”. For the same molecule, at HbS/A, the “delta R (%)” value is “++ (++ indicates a delta R of between 30 and 50)”. For the same molecule, the “delta p50%” value in experiment [2] was “++ (++ indicates a delta p50% of between 30 and 50)”.

Regarding `COC(=O)C1CCCC(COc2cccc(O)c2C=O)C1` (stereo not shown) [Compound 9, methyl 3-((2-formyl-3-hydroxyphenoxy)methyl)cyclohexanecarboxylate], in experiment [1], the “delta p50” value was “+ (+ indicates a delta p50% of between 0 and 29)”. On HbS/A, the “delta R (%)” value is on record as “+++ (+++ indicates a delta R of 50 or greater)”.

For the molecule `COC(=O)C1CCCC(COc2cccc(O)c2C=O)C1` (stereo not shown) [Compound 7, methyl 3-((2-formyl-3-hydroxyphenoxy)methyl)cyclohexanecarboxylate], in experiment [1], the “delta p50” value is on record as “++ (++ indicates a delta p50% of 30 or greater)”. For the same molecule, on purified HBS, the “% delta Delay” value was “†† (†† denotes activity >80% but ≤120%)”. Besides, the “delta p50%” value in experiment [2] was “+ (+ indicates a delta p50% of between 0 and 29)”.

As for `O=Cc1ccc(CO)o1` [Compound 5HMF, 5-hydroxymethyl-2-furfuraldehyde], the “hypoxia-induced sickled red blood cells” value in experiment [3] (compared to non-treated mice) is listed as “reduced amounts of hypoxia-induced sickled red blood cells”. Further, the survival times entry in experiment [3] is listed as “significantly improved survival times”.

Turning to `O=Cc1c(O)cccc1OCC1=C(c2ccccc2)CCCC1` [Compound 10, 2-hydroxy-6-((3,4,5,6-tetrahydro-[1,1′-biphenyl]-2-yl)methoxy)benzaldehyde], the “% delta Delay” value at purified HBS was “†† (†† denotes activity >80% but ≤120%)”. Besides, the “delta R (%)” value on HbS/A was “++ (++ indicates a delta R of between 30 and 50)”. Moreover, the “delta p50%” value in experiment [2] was “++ (++ indicates a delta p50% of between 30 and 50)”.

As to `COC(=O)[C@H]1CC[C@H](COc2cccc(O)c2C=O)CC1` [Compound 4, trans-methyl 4-((2-formyl-3-hydroxyphenoxy)methyl)cyclohexanecarboxylate], in experiment [1], the “delta p50” value is recorded as “++ (++ indicates a delta p50% of 30 or greater)”. Further, the “% delta Delay” value on purified HBS was “††† (††† denotes activity >120% but ≤140%)”. Besides, the “delta R (%)” value at HbS/A is “+++ (+++ indicates a delta R of 50 or greater)”. Further, the “delta p50%” value in experiment [2] is “+ (+ indicates a delta p50% of between 0 and 29)”.

Turning to `COC(=O)[C@H]1CC[C@@H](COc2cccc(O)c2C=O)CC1` [Compound 1, cis-methyl 4-((2-formyl-3-hydroxyphenoxy)methyl)cyclohexanecarboxylate], the “delta p50” value in experiment [1] is listed as “++ (++ indicates a delta p50% of 30 or greater)”. The “% delta Delay” value at purified HBS is listed as “†† (†† denotes activity >80% but ≤120%)”. The “delta R (%)” value on HbS/A is recorded as “+++ (+++ indicates a delta R of 50 or greater)”. In experiment [2], the “delta p50%” value is “+ (+ indicates a delta p50% of between 0 and 29)”.

Turning to `COc1cccc(OC[C@H]2CC[C@H](C(=O)OC)CC2)c1C=O` [Compound 8, trans-methyl 4-((2-formyl-3-methoxyphenoxy)methyl)cyclohexanecarboxylate], the “delta p50” value in experiment [1] is “+ (+ indicates a delta p50% of between 0 and 29)”. In addition, the “% delta Delay” value at purified HBS is on record as “† († denotes activity ≥40% but ≤80%)”. Besides, the “delta R (%)” value at HbS/A was “+ (+ indicates a delta R of between 0 and 30)”.

Regarding `O=Cc1c(O)cccc1OCC1CCCCC1c1ccccc1` (stereo not shown) [Compound 11, 2-hydroxy-6-((2-phenylcyclohexyl)methoxy)benzaldehyde], at purified HBS, the “% delta Delay” value is recorded as “† († denotes activity ≥40% but ≤80%)”. Moreover, the “delta R (%)” value on HbS/A was “++ (++ indicates a delta R of between 30 and 50)”.

For the molecule `O=Cc1c(O)cccc1OC[C@H]1CCC[C@@H](C(=O)O)C1` (relative stereo) [Compound 5, cis-3-((2-formyl-3-hydroxyphenoxy)methyl)cyclohexanecarboxylic acid], the “delta p50” value in experiment [1] is “++ (++ indicates a delta p50% of 30 or greater)”. Further, the “% delta Delay” value at purified HBS was “†††† (†††† denotes activity >160%)”. At HbS/A, the “delta R (%)” value is on record as “+++ (+++ indicates a delta R of 50 or greater)”. The “delta p50%” value in experiment [2] was “++ (++ indicates a delta p50% of between 30 and 50)”.

(Values after patent US10100043B2, “Substituted aldehyde compounds and methods for their use in increasing tissue oxygenation” (Global Blood Therapeutics, Inc., priority 2013, dated 2018).)
